Data published in patent publication US20040156869A1, “2-substituted quinazolin-4-ylamine analogues” (Neurogen Corporation, priority 2002, published 2004).

Target: human capsaicin receptor (VR1) (Homo sapiens, UniProt Q8NER1)
Experiment: Capsaicin receptor binding assay ([3H]RTX competition, VR1-transfected HEK293 membranes)

Chain of human capsaicin receptor (VR1) (Q8NER1 whole entry): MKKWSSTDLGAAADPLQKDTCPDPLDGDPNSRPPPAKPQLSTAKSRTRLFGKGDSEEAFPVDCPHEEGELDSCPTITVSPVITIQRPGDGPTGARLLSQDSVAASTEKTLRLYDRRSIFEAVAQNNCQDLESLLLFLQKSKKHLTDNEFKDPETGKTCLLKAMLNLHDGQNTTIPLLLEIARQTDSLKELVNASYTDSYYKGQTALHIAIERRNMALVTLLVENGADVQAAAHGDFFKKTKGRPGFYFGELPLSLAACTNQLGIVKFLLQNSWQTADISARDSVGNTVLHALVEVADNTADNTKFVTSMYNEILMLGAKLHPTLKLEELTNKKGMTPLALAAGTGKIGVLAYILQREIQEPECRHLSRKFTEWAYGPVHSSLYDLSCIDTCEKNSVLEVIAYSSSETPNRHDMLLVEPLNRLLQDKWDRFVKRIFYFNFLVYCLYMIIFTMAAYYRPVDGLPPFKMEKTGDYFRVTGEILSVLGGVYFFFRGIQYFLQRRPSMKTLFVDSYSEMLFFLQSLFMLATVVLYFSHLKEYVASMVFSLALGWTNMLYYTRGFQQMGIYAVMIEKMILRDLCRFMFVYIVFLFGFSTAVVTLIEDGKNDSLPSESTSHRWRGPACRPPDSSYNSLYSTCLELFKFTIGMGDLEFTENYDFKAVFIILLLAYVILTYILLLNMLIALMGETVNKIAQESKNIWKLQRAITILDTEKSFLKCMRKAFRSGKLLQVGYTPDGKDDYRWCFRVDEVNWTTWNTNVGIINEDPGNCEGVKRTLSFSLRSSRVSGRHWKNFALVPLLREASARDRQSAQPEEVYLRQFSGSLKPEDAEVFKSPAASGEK

| Ki [nM] | SMILES |
| --- | --- |
| < 1000 | COc1ccccc1CNCc1nc(Nc2ccc(C(F)(F)F)nc2)c2ccc(-c3ncccc3C(F)(F)F)cc2n1 [Compound 576, [2-[(2-Methoxy-benzylamino)-methyl]-7-(3-trifluoromethyl-pyridin-2-yl)-quinazolin-4-yl]-(6-trifluoromethyl-pyridin-3-yl)-amine] |
| < 1000 | C=CCN(CC=C)Cc1nc(Nc2ccc(C(F)(F)F)cc2)c2ncc(-c3ncccc3C(F)(F)F)cc2n1 [Compound 663, [2-Diallylaminomethyl-7-(3-trifluoromethyl-pyridin-2-yl)-pyrido[3,2-d]pyrimidin-4-yl]-(4-trifluoromethyl-phenyl)-amine] |
| < 1000 | C=CCN(CC=C)Cc1nc(Nc2ccc(C(F)(F)F)nc2)c2ccc(-c3ncccc3C(F)(F)F)cc2n1 [Compound 372, [2-Diallylaminomethyl-7-(3-trifluoromethyl-pyridin-2-yl)-quinazolin-4-yl]-(6-trifluoromethyl-pyridin-3-yl)-amine] |
| < 1000 | CN(CCc1nc(Nc2ccc(C(F)(F)F)cc2)c2ccc(-c3ncccc3C(F)(F)F)cc2n1)Cc1cccc(F)c1 [Compound 394, [2-{2-[(3-Fluoro-benzyl)-methyl-amino]-ethyl}-7-(3-trifluoromethyl-pyridin-2-yl)-quinazolin-4-yl]-(4-trifluoromethyl-phenyl)-amine] |
| < 1000 | CC1CCCCN1CCc1nc(Nc2ccc(C(F)(F)F)cc2)c2ccc(-c3ncccc3C(F)(F)F)cc2n1 (centres unmarked) [Compound 422, [2-(2-Methyl-piperidin-1-ylethyl)-7-(3-trifluoromethyl-pyridin-2-yl)-quinazolin-4-yl]-(4-trifluoromethyl-phenyl)-amine] |
| < 1000 | Cc1cccnc1-c1ccc2c(Nc3ccc(C(C)C)cc3)nc(CN3CCSCC3)nc2c1 [Compound 713, (4-Isopropyl-phenyl)-[7-(3-methyl-pyridin-2-yl)-2-thiomorpholin-4-ylmethyl-quinazolin-4-yl]-amine] |
| < 1000 | CN(C)C(=O)c1nc(Nc2ccc(C(F)(F)F)cc2)c2ccc(-c3ncccc3C(F)(F)F)nc2n1 [Compound 467, 4-(4-Trifluoromethyl-phenylamino)-7-(3-trifluoromethyl-pyridin-2-yl)-pyrido[2,3-d]pyrimidine-2-carboxylic acid dimethylamide] |
| < 1000 | CCCN(Cc1nc(Nc2ccc(C(F)(F)F)cc2)c2ncc(-c3ncccc3C(F)(F)F)cc2n1)CC1CC1 [Compound 665, [2-[(Cyclopropylmethyl-propyl-amino)-methyl]-7-(3-trifluoromethyl-pyridin-2-yl)-pyrido[3,2-d]pyrimidin-4-yl]-(4-trifluoromethyl-phenyl)-amine] |
| < 1000 | CCOCN(COCC)Cc1nc(Nc2ccc(C(F)(F)F)cc2)c2ccc(-c3ncccc3C)cc2n1 [Compound 725, [2-[(Bis-ethoxymethyl-amino)-methyl]-7-(3-methyl-pyridin-2-yl)-quinazolin-4-yl]-(4-trifluoromethyl-phenyl)-amine] |
| < 1000 | O=C(NCCN1CCCC1)c1nc(Nc2ccc(C(F)(F)F)cc2)c2ccc(-c3ncccc3C(F)(F)F)nc2n1 [Compound 437, 4-(4-Trifluoromethyl-phenylamino)-7-(3-trifluoromethyl-pyridin-2-yl)-pyrido[2,3-d]pyrimidine-2-carboxylic acid (2-pyrrolidin-1-yl-ethyl)-amide] |
| < 1000 | COCCN(CCOC)Cc1nc(Nc2ccc(C(F)(F)F)cc2)c2ccc(-c3ncccc3C)nc2n1 [Compound 743, [2-{[Bis-(2-methoxy-ethyl)-amino]-methyl}-7-(3-methyl-pyridin-2-yl)-pyrido[2,3-d]pyrimidin-4-yl]-(4-trifluoromethyl-phenyl)-amine] |
| < 1000 | COCc1nc(Nc2ccc(C3CC3)cc2)c2ccc(-c3ncccc3C(F)(F)F)cc2n1 [Compound 118, (4-Cyclopropyl-phenyl)-[2-methoxymethyl-7-(3-trifluoromethyl-pyridin-2-yl)-quinazolin-4-yl]-amine] |
| < 1000 | O=C(O)c1nc(Nc2ccc(C(F)(F)F)cc2)c2ccc(-c3ncccc3C(F)(F)F)nc2n1 [Compound 206, 4-(4-Trifluoromethyl-phenylamino)-7-(3-trifluoromethyl-pyridin-2-yl)-pyrido[2,3-d]pyrimidine-2-carboxylic acid] |
| < 1000 | FC(F)(F)c1ccc(Nc2nc(CCN3CCCC4CCCCC43)nc3cc(-c4ncccc4C(F)(F)F)ccc23)cc1 (centres unmarked) [Compound 408, [2-(Octahydro-quinolin-1-ylethyl)-7-(3-trifluoromethyl-pyridin-2-yl)-quinazolin-4-yl]-(4-trifluoromethyl-phenyl)-amine] |
| < 1000 | COCc1nc(Nc2ccc(F)c(F)c2)c2ccc(-c3ncccc3C(F)(F)F)nc2n1 [Compound 291, (3,4-Difluoro-phenyl)-[2-methoxymethyl-7-(3-trifluoromethyl-pyridin-2-yl)-pyrido[2,3-d]pyrimidin-4-yl]-amine] |
| < 1000 | CC1CCN(CCc2nc(Nc3ccc(C(F)(F)F)cc3)c3ccc(-c4ncccc4C(F)(F)F)cc3n2)CC(C)(C)C1 (centres unmarked) [Compound 406, (4-Trifluoromethyl-phenyl)-{7-(3-trifluoromethyl-pyridin-2-yl)-2-[2-(3,3,5-trimethyl-azepan-1-yl)-ethyl]-quinazolin-4-yl}-amine] |
| < 1000 | CC1(C)CCCC(NC(=O)c2nc(Nc3ccc(C(F)(F)F)cc3)c3ccc(-c4ncccc4C(F)(F)F)nc3n2)C1 (centres unmarked) [Compound 468, 4-(4-Trifluoromethyl-phenylamino)-7-(3-trifluoromethyl-pyridin-2-yl)-pyrido[2,3-d]pyrimidine-2-carboxylic acid (3,3-dimethyl-cyclohexyl)-amide] |
| < 1000 | COCc1nc(Nc2ccc(C(C)(C)C#N)cc2)c2ccc(-c3ncccc3C)nc2n1 [Compound 98, 2-{4-[2-Methoxymethyl-7-(3-methyl-pyridin-2-yl)-pyrido[2,3-d]pyrimidin-4-ylamino]-phenyl}-2-methyl-propionitrile] |

| SMILES | Ki [nM] |
| --- | --- |
| CC(C)COCc1nc(Nc2cccc(C(F)(F)F)c2)c2ccc(-c3ncccc3C(F)(F)F)nc2n1 [Compound 270, [2-Isobutoxymethyl-7-(3-trifluoromethyl-pyridin-2-yl)-pyrido[2,3-d]pyrimidin-4-yl]-(3-trifluoromethyl-phenyl)-amine] | < 1000 |
| CCCCOc1ccc(Nc2nc(COCC(C)C)nc3nc(-c4ncccc4Cl)ccc23)cc1 [Compound 278, (4-Butoxy-phenyl)-[7-(3-chloro-pyridin-2-yl)-2-isobutoxymethyl-pyrido[2,3-d]pyrimidin-4-yl]-amine] | < 1000 |
| CC(C)COCc1cc2nc(-c3ncccc3C(F)(F)F)ccc2c(Nc2ccc(C(F)(F)F)cc2)n1 [Compound 296, [7-Isobutoxymethyl-2-(3-trifluoromethyl-pyridin-2-yl)-[1,6]naphthyridin-5-yl]-(4-trifluoromethyl-phenyl)-amine] | < 1000 |
| CC(C)COCc1nc(Nc2ccc(S(=O)(=O)C(F)(F)F)cc2)c2ccc(-c3ncccc3C(F)(F)F)nc2n1 [Compound 168, [2-Isobutoxymethyl-7-(3-trifluoromethyl-pyridin-2-yl)-pyrido[2,3-d]pyrimidin-4-yl]-(4-trifluoromethanesulfonyl-phenyl)-amine] | < 1000 |
| CC(C)(C)c1ccc(Nc2nc(COCCCCN3CCOCC3)nc3cc(-c4ncccc4C(F)(F)F)ccc23)cc1 [Compound 125, (4-tert-Butyl-phenyl)-[2-(4-morpholin-4-yl-butoxymethyl)-7-(3-trifluoromethyl-pyridin-2-yl)-quinazolin-4-yl]-amine] | < 1000 |
